Counter-ions that a name gives are not always drawn.
What was measured:
hNLRP3 inflammasome = target: T1, hNLRP3 inflammasome (Homo sapiens, UniProt Q96P20); assay: Agonistic effect on the expression of IL-1β in THP-1 cells after PMA-induced differentiation (HTRF); type: cell-based; settings: IL-1β level, PMA-differentiated THP-1 cells, 6 hours
T1 construct: endogenous in cells; host or cells: THP-1 cells, PMA-differentiated
Source text: Experimental Example 1: Agonistic Effect of the Compound of the Invention on the Expression of IL-1β in THP-1 Cells after PMA-Induced Differentiation
In this test, a HTRF (homogeneous time-resolved fluorescence) detection method was used to test the effect of the compound of the invention on the level of downstream cytokine IL-1β of NLRP3 to evaluate the agonistic effect of the compound on hNLRP3 inflammasome or hNLRP3 inflammasome pathway at a cellular level.
Reagent: RPMI 1640 (Hyclone); heat-inactivated FBS (fetal bovine serum) (Gibco); PMA (phorbol myristal acetate) (Beyotime)
Kit: IL-1β assay kit (CISIO)
1) THP-1 cells in a logarithmic growth phase were seeded in a T75 culture flask at a density of 5×10^5 cells/well, and cultured in a cell incubator at 37° C., 5% CO2 for 24 hours, and then 1 μM PMA was used to induce THP-1 suspension cells to become adherent macrophages. The medium was RPMI 1640 containing 10% heat-inactivated FBS and 0.05 mM β-mercaptoethanol.
2) The cells were induced and cultured for 24 hours. Then the adherent cells were trypsinized and centrifuged at 1000 rpm for 5 min. The supernatant was removed, and the cells were resuspended to a density of 2×10^6 cells/mL in RPMI 1640 medium containing 2% heat-inactivated FBS. 50 μL/well of cell resuspension was taken and spread on a 96-well plate such that the number of cells in each well was 1×10^5.
3) An appropriate amount of 10 mM DMSO solution of the compound to be tested was taken and diluted to a concentration of 2× test concentration with RPMI 1640 medium containing 2% heat-inactivated FBS. 50 μL/well of the dilution was added to the cells in the 96-well plate, and mixed well. The plate was placed in a cell incubator at 37° C., 5% CO2 for 6 hours. The supernatant was collected, and the level of IL-1β was measured in accordance with the instructions of the IL-1β detection kit.
4) EC50 was fitted by the GraphPad software log(agonist) vs. response—Variable slope four-parameter method.

[1] = test system: CT26 mouse colon cancer subcutaneously transplanted tumor; assay: In vivo efficacy on bilaterally inoculated CT26 mouse colon cancer subcutaneously transplanted tumor; settings: for tumor volume (mm^3) day 0 / tumor volume (mm^3) day 14: twice a week for two weeks; for tumor volume (mm^3) day 0: day 0 (grouping); for tumor volume (mm^3) day 14 / TGI (%): day 14
Protocol: Experimental Example 7: In Vivo Efficacy of the Compounds of the Invention on Bilaterally Inoculated CT26 Mouse Colon Cancer Subcutaneously Transplanted Tumor
1) CT26 mouse colon cancer cells were cultured in a monolayer in vitro. When the cells were in a logarithmic growth phase, the cells were collected by centrifugation and counted.
2) 0.1 ml of PBS resuspension containing 3×10^5 CT26 cells was inoculated subcutaneously in the bilateral shoulder blades of mice respectively. When the bilateral scapular tumors of the mice grew to a volume of about 100 mm^3, the mice were randomly divided into 4 groups according to the bilateral tumor volumes, 8 mice in each group.
3) Compound 115s was injected into the tumor at the right scapular tumor of mice at 10 μg/time, 50 μg/time, and 250 μg/time, respectively, twice a week for two consecutive weeks. The bilateral tumor volumes and the body weight of the animals were measured.
4) Tumor inhibition rate, TGI (%), was calculated based on the tumor volumes to evaluate the inhibitory effect of Compound 115s on the growth of transplanted tumors in the mice. The calculation formula was: TGI (%)=100%−(TVt−TV0)/(CVt−CV0)×100%. When the tumor was regressing, the calculation formula was: TGI (%)=100%−(TVt−TV0)/TV0×100%, wherein TV0 was the average tumor volume of the tested compound group at the time of grouping; TVt was the average tumor volume of the tested compound group at the time of measurement on the t^th day; CV0 was the average tumor volume of the vehicle group at the time of grouping; and CVt was the average tumor volume of the vehicle group at the time of measurement on the t^th day. For statistical analysis of differences between the two groups, student's t-test was used to calculate the P value.

[2] = administration side, 10 μg/time intratumoral
[3] = administration side, 50 μg/time intratumoral
[4] = administration side, 250 μg/time intratumoral
[5] = non-administration side, 10 μg/time intratumoral (other side)
[6] = non-administration side, 50 μg/time intratumoral (other side)
[7] = non-administration side, 250 μg/time intratumoral (other side)

T1 sequence (Q96P20 whole entry): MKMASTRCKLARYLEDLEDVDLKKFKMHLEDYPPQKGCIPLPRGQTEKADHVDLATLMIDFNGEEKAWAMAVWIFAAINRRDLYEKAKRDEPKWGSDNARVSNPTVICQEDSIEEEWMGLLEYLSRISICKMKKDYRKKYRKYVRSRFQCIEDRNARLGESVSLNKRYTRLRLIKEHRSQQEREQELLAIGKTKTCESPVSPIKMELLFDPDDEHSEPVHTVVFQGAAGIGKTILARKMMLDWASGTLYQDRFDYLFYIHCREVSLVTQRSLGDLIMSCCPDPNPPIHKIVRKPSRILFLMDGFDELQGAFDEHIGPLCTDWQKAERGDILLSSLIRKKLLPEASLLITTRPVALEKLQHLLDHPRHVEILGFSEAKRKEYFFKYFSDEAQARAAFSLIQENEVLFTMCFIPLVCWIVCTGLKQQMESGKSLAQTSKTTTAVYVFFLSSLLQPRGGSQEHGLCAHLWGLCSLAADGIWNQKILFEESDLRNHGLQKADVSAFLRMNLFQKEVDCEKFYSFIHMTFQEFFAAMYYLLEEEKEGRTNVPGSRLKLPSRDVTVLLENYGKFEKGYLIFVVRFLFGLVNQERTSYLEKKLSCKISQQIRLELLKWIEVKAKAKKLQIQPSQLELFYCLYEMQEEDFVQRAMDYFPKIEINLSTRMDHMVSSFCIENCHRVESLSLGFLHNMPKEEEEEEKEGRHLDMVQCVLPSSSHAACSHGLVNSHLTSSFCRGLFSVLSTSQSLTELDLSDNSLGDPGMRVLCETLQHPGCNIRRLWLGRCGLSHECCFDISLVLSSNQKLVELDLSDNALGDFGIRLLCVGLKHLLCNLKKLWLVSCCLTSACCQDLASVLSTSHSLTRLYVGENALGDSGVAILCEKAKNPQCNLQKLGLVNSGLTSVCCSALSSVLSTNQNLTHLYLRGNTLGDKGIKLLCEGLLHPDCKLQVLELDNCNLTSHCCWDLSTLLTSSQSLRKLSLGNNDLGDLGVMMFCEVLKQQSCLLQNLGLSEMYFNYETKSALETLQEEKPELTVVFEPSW

Q: For `COCCNc1cc(N)nc2cc(-c3ccn[nH]3)sc12` [Compound 100s, N^7-(2-methoxyethyl)-2-(1H-pyrazol-5-yl)thieno[3,2-b]pyridine-5,7-diamine hydrochloride], which EC50 (hNLRP3 inflammasome) is on record?
A: 0.01 µM

Q: Which EC50 (hNLRP3 inflammasome) does the source give for `Nc1cc(NC2CCCC2)c2sc(-c3ccn[nH]3)cc2n1` [Compound 110s, N^7-cyclopentyl-2-(1H-pyrazol-5-yl)thieno[3,2-b]pyridine-5,7-diamine hydrochloride] here?
A: 0.03 µM

Q: With `CCC(CC)Nc1cc(N)nc2cc(-c3ccn[nH]3)sc12` [Compound 113s, N^7-(pent-3-yl)-2-(1H-pyrazol-5-yl)thieno[3,2-b]pyridine-5,7-diamine hydrochloride] as the molecule, how does the EC50 (hNLRP3 inflammasome) read?
A: 0.01 µM

Q: What does the source list for `CC(C)(CO)CNc1cc(N)nc2cc(-c3ccn[nH]3)sc12.Cl` [Compound 115s, 3-((5-amino-2-(1H-pyrazol-5-yl)thieno[3,2-b]pyridin-7-yl)amino)-2,2-dimethyl-1-propanol hydrochloride]?
A: tumor volume (mm^3) day 0 [1, 2]: 74.63 ± 6.26 mm^3; tumor volume (mm^3) day 14 [1, 2]: 499.05 ± 211.28 mm^3; TGI (%) [1, 2]: 77.46%; tumor volume (mm^3) day 0 [1, 3]: 74.03 ± 4.69 mm^3; tumor volume (mm^3) day 14 [1, 3]: 61.66 ± 41.15 mm^3; TGI (%) [1, 3]: 144.99%; tumor volume (mm^3) day 0 [1, 4]: 74.00 ± 4.41 mm^3; tumor volume (mm^3) day 14 [1, 4]: 0.00 ± 0.00 mm^3; TGI (%) [1, 4]: 200.00%; tumor inhibitory effect on the non-administration side tumors ([1]; intratumoral injection at the other side, in words): significant dose-dependent tumor inhibitory effect; anti-tumor effect on the subcutaneous tumor at the administration side ([1]; intratumoral injection, compared with the vehicle group, in words): significant dose-dependent anti-tumor effect; tumor inhibitory effect on bilateral CT26 subcutaneous tumors ([1]; intratumoral injection, summary in words): significant dose-dependent tumor inhibitory effect; tumor volume (mm^3) day 0 [1, 5]: 85.21 ± 7.40 mm^3; tumor volume (mm^3) day 14 [1, 5]: 1269.99 ± 140.11 mm^3; TGI (%) ([1]; non-administration side, 10 μg/time): 38.94%; tumor volume (mm^3) day 0 [1, 6]: 85.31 ± 6.01 mm^3; tumor volume (mm^3) day 14 [1, 6]: 869.87 ± 99.95 mm^3; TGI (%) ([1]; non-administration side, 50 μg/time): 59.57%; tumor volume (mm^3) day 0 [1, 7]: 85.17 ± 6.28 mm^3; tumor volume (mm^3) day 14 [1, 7]: 462.85 ± 52.91 mm^3; TGI (%) ([1]; non-administration side, 250 μg/time): 80.54%

Q: How did the EC50 (hNLRP3 inflammasome) turn out when `Nc1cc(NCC(F)F)c2sc(-c3ccn[nH]3)cc2n1` [Compound 116s, N^7-(2,2-difluoroethyl)-2-(1H-pyrazol-5-yl)thieno[3,2-b]pyridine-5,7-diamine hydrochloride] was run?
A: 0.05 µM

Q: With `Nc1cc(NCC2CCOCC2)c2sc(-c3ccn[nH]3)cc2n1` [Compound 120s, 2-(1H-pyrazol-5-yl)-N^7-((tetrahydro-2H-pyran-4-yl)methyl)thieno[3,2-b]pyridine-5,7-diamine hydrochloride] as the molecule, how does the EC50 (hNLRP3 inflammasome) read?
A: 0.03 µM
